Key:
Format in all cases: cell-based
[1] = test system: HIV-1 94ZW103
Description: (§1) PBMC Infectivity Assay. PBMC were isolated from healthy blood donors by Ficoll-Hypaque centrifugation and then stimulated for 2-3 days with phytohemagglutinin (5 µg/ml) and interleukin-2 (100 U/ml). The inhibition assay was performed essentially as described previously (Trkola, A., T. Ketas, V. N. KewalRamani, F. Endorf, J. M. Binley, H. Katinger, J. Robinson, D. R. Littman, and J. P. Moore. 1998. Neutralization sensitivity of human immunodeficiency virus type 1 primary isolates to antibodies and CD4-based reagents is independent of co-receptor usage. J. Virol. 72:1876-1885; Trkola, A., W. A. Paxton, S. P. Monard, J. A. Hoxie, M. A. Siani, D. A. Thompson, L. Wu, C. R. Mackay, R. Horuk, and J. P. Moore. 1998. Genetic subtype-independent inhibition of human immunodeficiency virus type 1 replication by CC and CXC chemokines. J. Virol. 72:396-404).
(§2) Briefly, the virus inoculum was adjusted to 400-1,000 TCID50/ml in assay medium (RPMI 1640, 10% FCS, 100 U of interleukin-2 per ml, glutamine, and peptides), and 50 µl aliquots were incubated with serial dilutions of the peptide inhibitors (50 µl) for 1 h at 37 °C. […] RBMC (4 x 10^5 in 100 µl of medium) were then added. The final concentration of virus in the cultures was 20-50 TCID50/well, corresponding to 100-250 TCID50/ml. […] The viral inocula in 50% tissue culture infectious doses (TCID50) were 400-1000/ml.

[2] = test system: HIV-1 Case C 7/86
Description: as §1, §2

[3] = test system: HIV-1 NL4-3
Description: as §1, §2

[4] = test system: HIV-1 DJ258
Description: as §1, §2

[5] = test system: HIV-1 UG270
Description: as §1, §2

[6] = test system: HIV-1 JFRL
Description: as §1, §2

[7] = test system: HIV-1 CM.235
Description: as §1, §2

Substance: Enfuvirtide
- IC50 [1]: 13 nM
- IC50 [2]: 4 nM
- IC50 [3]: 35 nM
- IC50 [4]: 83 nM
- IC50 [5]: 257 nM
- IC50 [6]: 9 nM
- IC50 [7]: 79 nM

Source: patent EP1500662A2, “Stabilizing peptides” (CORNELL RESEARCH FOUNDATION, INC., priority 2003, dated 2005)
